Assay [1] concerns Salmonella typhi. As to the kind of experiment: Antibacterial activity against Salmonella enterica subsp. enterica serovar Typhi at 5 ug/disk after 24 hr by disk diffusion method. Format: functional. Particulars: read-out: IZ. Background: A growth-free zone around the sample is the usual read-out of agar diffusion tests.
Assay [2] has as its system Klebsiella pneumoniae. As to the kind of experiment: Antibacterial activity against Klebsiella pneumoniae at 5 ug/disk after 24 hr by disk diffusion method. Particulars: read-out: IZ.
The test system of assay [3] is Vibrio cholerae. As to the kind of experiment: Antibacterial activity against Vibrio cholerae at 5 ug/disc after 24 hr by disk diffusion method. Particulars: read-out: IZ. The class given is functional.
Assay [4] relates to Streptococcus. The assay can be described thus: Antibacterial activity against beta-hemolytic Streptococcus at 5 ug/disk after 24 hr by disk diffusion method. The class given is functional. Particulars: read-out: IZ.
The subject of assay [5] is Shigella flexneri. As to the kind of experiment: Antibacterial activity against Shigella flexneri at 5 ug/disc after 24 hr by disk diffusion method. The class given is functional. Particulars: read-out: IZ.
For assay [6], the system named is Staphylococcus aureus. The assay can be described thus: Antibacterial activity against Staphylococcus aureus at 5 ug/disc after 24 hr by disk diffusion method. Particulars: read-out: IZ.
Assay [7] relates to Pseudomonas. The assay can be described thus: Antibacterial activity against Pseudomonas at 5 ug/disk after 24 hr by disk diffusion method. The class given is functional. Particulars: read-out: IZ.
The test system of assay [8] is Streptococcus. As to the kind of experiment: Antibacterial activity against beta-hemolytic Streptococcus at 100 ppm after 24 hr by disk diffusion method. The class given is functional, organism-based.
Assay [9] concerns Escherichia coli. The assay can be described thus: Antibacterial activity against Escherichia coli at 500 ppm after 24 hr by disk diffusion method. Particulars: read-out: IZ. The class given is functional.
Assay [10] relates to Shigella flexneri. The assay can be described thus: Antibacterial activity against Shigella flexneri at 200 ppm after 24 hr by disk diffusion method. Format: functional. Particulars: read-out: IZ.
Assay [11] relates to Mucor. As to the kind of experiment: Antifungal activity against Mucor at 100 ppm after 72 to 96 hr by disk diffusion method. Format: functional.
The subject of assay [12] is Nannizzia gypsea. The assay can be described thus: Antifungal activity against Microsporum gypseum at 500 ppm after 72 to 96 hr by disk diffusion method. Format: functional. Particulars: read-out: IZ.
In assay [13] the test system is Pseudomonas. The assay can be described thus: Antibacterial activity against Pseudomonas at 200 ppm after 24 hr by disk diffusion method. Format: functional. Particulars: read-out: IZ.
Assay [14] relates to Nannizzia gypsea. As to the kind of experiment: Antifungal activity against Microsporum gypseum at 100 ppm after 72 to 96 hr by disk diffusion method. Format: functional. Particulars: read-out: IZ.
Assay [15] has as its system Vibrio cholerae. As to the kind of experiment: Antibacterial activity against Vibrio cholerae at 100 ppm after 24 hr by disk diffusion method. Format: functional. Particulars: read-out: IZ.
Assay [16] concerns Salmonella typhi. The assay can be described thus: Antibacterial activity against Salmonella enterica subsp. enterica serovar Typhi at 500 ppm after 24 hr by disk diffusion method. The class given is functional. Particulars: read-out: IZ.
For assay [17], the system named is Streptococcus. The assay can be described thus: Antibacterial activity against beta-hemolytic Streptococcus at 500 ppm after 24 hr by disk diffusion method. Format: functional. Particulars: read-out: IZ.
The test system of assay [18] is Aspergillus flavus. The assay can be described thus: Antifungal activity against Aspergillus flavus at 200 ppm after 72 to 96 hr by disk diffusion method. Particulars: read-out: IZ. Format: functional.
The subject of assay [19] is Vibrio cholerae. As to the kind of experiment: Antibacterial activity against Vibrio cholerae at 200 ppm after 24 hr by disk diffusion method. The class given is functional. Particulars: read-out: IZ.
The test system of assay [20] is Nannizzia gypsea. The assay can be described thus: Antifungal activity against Microsporum gypseum at 200 ppm after 72 to 96 hr by disk diffusion method. Format: functional. Particulars: read-out: IZ.
In assay [21] the test system is Mucor. As to the kind of experiment: Antifungal activity against Mucor at 500 ppm after 72 to 96 hr by disk diffusion method. Format: functional. Particulars: read-out: IZ.
The test system of assay [22] is Klebsiella pneumoniae. The assay can be described thus: Antibacterial activity against Klebsiella pneumoniae at 100 ppm after 24 hr by disk diffusion method. The class given is functional. Particulars: read-out: IZ.
In assay [23] the test system is Shigella flexneri. The assay can be described thus: Antibacterial activity against Shigella flexneri at 100 ppm after 24 hr by disk diffusion method. The class given is functional.
For assay [24], the system named is Aspergillus flavus. The assay can be described thus: Antifungal activity against Aspergillus flavus at 500 ppm after 72 to 96 hr by disk diffusion method. Format: functional. Particulars: read-out: IZ.
Assay [25] deals with Vibrio cholerae. As to the kind of experiment: Antibacterial activity against Vibrio cholerae at 500 ppm after 24 hr by disk diffusion method. Format: functional. Particulars: read-out: IZ.
Assay [26] relates to Rhizopus. The assay can be described thus: Antifungal activity against Rhizopus at 200 ppm after 72 to 96 hr by disk diffusion method. The class given is functional. Particulars: read-out: IZ.
In assay [27] the test system is Klebsiella pneumoniae. The assay can be described thus: Antibacterial activity against Klebsiella pneumoniae at 200 ppm after 24 hr by disk diffusion method. Particulars: read-out: IZ. The class given is functional.
Assay [28] concerns Pseudomonas. The assay can be described thus: Antibacterial activity against Pseudomonas at 100 ppm after 24 hr by disk diffusion method. Format: functional. Particulars: read-out: IZ.
The test system of assay [29] is Streptococcus. The assay can be described thus: Antibacterial activity against beta-hemolytic Streptococcus at 200 ppm after 24 hr by disk diffusion method. Particulars: read-out: IZ. The class given is functional.
The subject of assay [30] is Escherichia coli. The assay can be described thus: Antibacterial activity against Escherichia coli at 200 ppm after 24 hr by disk diffusion method. Format: functional. Particulars: read-out: IZ.
The subject of assay [31] is Salmonella typhi. As to the kind of experiment: Antibacterial activity against Salmonella enterica subsp. enterica serovar Typhi at 200 ppm after 24 hr by disk diffusion method. The class given is functional. Particulars: read-out: IZ.
The subject of assay [32] is Aspergillus flavus. As to the kind of experiment: Antifungal activity against Aspergillus flavus at 100 ppm after 72 to 96 hr by disk diffusion method. The class given is functional. Particulars: read-out: IZ.
In assay [33] the test system is Staphylococcus aureus. The assay can be described thus: Antibacterial activity against Staphylococcus aureus at 500 ppm after 24 hr by disk diffusion method. Format: functional. Particulars: read-out: IZ.
The test system of assay [34] is Rhizopus. The assay can be described thus: Antifungal activity against Rhizopus at 500 ppm after 72 to 96 hr by disk diffusion method. Format: functional. Particulars: read-out: IZ.
For assay [35], the system named is Staphylococcus aureus. As to the kind of experiment: Antibacterial activity against Staphylococcus aureus at 100 ppm after 24 hr by disk diffusion method. The class given is functional.
For assay [36], the system named is Salmonella typhi. The assay can be described thus: Antibacterial activity against Salmonella enterica subsp. enterica serovar Typhi at 100 ppm after 24 hr by disk diffusion method. Particulars: read-out: IZ. Format: functional.
The subject of assay [37] is Staphylococcus aureus. As to the kind of experiment: Antibacterial activity against Staphylococcus aureus at 200 ppm after 24 hr by disk diffusion method. Particulars: read-out: IZ. The class given is functional.
The test system of assay [38] is Shigella flexneri. The assay can be described thus: Antibacterial activity against Shigella flexneri at 500 ppm after 24 hr by disk diffusion method. Format: functional. Particulars: read-out: IZ.
For assay [39], the system named is Pseudomonas. The assay can be described thus: Antibacterial activity against Pseudomonas at 500 ppm after 24 hr by disk diffusion method. The class given is functional. Particulars: read-out: IZ.
In assay [40] the test system is Escherichia coli. As to the kind of experiment: Antibacterial activity against Escherichia coli at 100 ppm after 24 hr by disk diffusion method. Format: functional, organism-based.
Assay [41] concerns Mucor. As to the kind of experiment: Antifungal activity against Mucor at 200 ppm after 72 to 96 hr by disk diffusion method. Format: functional. Particulars: read-out: IZ.
For assay [42], the system named is Rhizopus. As to the kind of experiment: Antifungal activity against Rhizopus at 100 ppm after 72 to 96 hr by disk diffusion method. Format: functional. Particulars: read-out: IZ.
Assay [43] has as its system Klebsiella pneumoniae. The assay can be described thus: Antibacterial activity against Klebsiella pneumoniae at 500 ppm after 24 hr by disk diffusion method. The class given is functional. Particulars: read-out: IZ.
The test system of assay [44] is Nannizzia gypsea. The assay can be described thus: Antifungal activity against Microsporum gypseum at 100 units/disc after 72 to 96 hr by disc diffusion method. The class given is functional.
For assay [45], the system named is Aspergillus flavus. The assay can be described thus: Antifungal activity against Aspergillus flavus at 100 units/disk after 72 to 96 hr by disk diffusion method. The class given is functional.
In assay [46] the test system is Rhizopus. As to the kind of experiment: Antifungal activity against Rhizopus at 100 units/disk after 72 to 96 hr by disk diffusion method. Format: functional.
Assay [47] relates to Mucor. As to the kind of experiment: Antifungal activity against Mucor at 100 units/disk after 72 to 96 hr by disk diffusion method. Format: functional.

Active and inactive are the calls of the source. No cut-off for these calls is given here.

As to `O=C(O)c1cn(C2CC2)c2cc(N3CCNCC3)c(F)cc2c1=O` [CIPROFLOXACIN], the zone of inhibition at 5 µg/disc turned out to be 22 mm in the assay with Salmonella typhi [1]; 26 mm in the assay with Klebsiella pneumoniae [2]; 23 mm in the assay with Vibrio cholerae [3]; 28 mm with Streptococcus [4]; 23 mm with Shigella flexneri [5]; 25 mm in the assay with Staphylococcus aureus [6]. In addition, the zone of inhibition at 5 µg/disc with Pseudomonas [7] was determined as 23 mm.
On to `CC1(C)c2nnsc2C(c2ccccc2)NC1c1ccccc1` (configuration not stated), for which the “inhibition zone (IZ)” value with Streptococcus [8], in the assay on Mucor [11], in the assay with Shigella flexneri [23], in the assay on Staphylococcus aureus [35] and with Escherichia coli [40] was “inactive” in each case. The zone of inhibition at 500 ppm in the assay on Escherichia coli [9] is 12 mm; with Nannizzia gypsea [12] it was 30 mm; with Salmonella typhi [16], 12 mm; in the assay on Streptococcus [17], 22 mm; in the assay on Mucor [21] it was 17 mm; in the assay on Aspergillus flavus [24], 17 mm. Moreover, the zone of inhibition at 500 ppm with Vibrio cholerae [25] is 17 mm; in the assay with Staphylococcus aureus [33], 22 mm; with Rhizopus [34], 17 mm; in the assay on Shigella flexneri [38], 17 mm; in the assay with Pseudomonas [39] it was 12 mm; with Klebsiella pneumoniae [43], 22 mm. Besides, the zone of inhibition at 200 ppm in the assay with Shigella flexneri [10] stood at 12 mm; in the assay on Pseudomonas [13] it was 12 mm; in the assay with Aspergillus flavus [18], 12 mm; with Vibrio cholerae [19], 12 mm; in the assay with Nannizzia gypsea [20] it was 17 mm; in the assay with Rhizopus [26], 17 mm. Besides, the zone of inhibition at 200 ppm in the assay on Klebsiella pneumoniae [27] is 17 mm; in the assay with Streptococcus [29], 12 mm; with Escherichia coli [30], 12 mm; in the assay on Salmonella typhi [31], 12 mm; in the assay on Staphylococcus aureus [37], 17 mm; in the assay with Mucor [41], 12 mm. In addition, the zone of inhibition at 100 ppm with Nannizzia gypsea [14], in the assay with Vibrio cholerae [15], with Klebsiella pneumoniae [22], in the assay with Pseudomonas [28], with Aspergillus flavus [32] and in the assay on Salmonella typhi [36] was 12 mm each time. In the assay on Rhizopus [42], the zone of inhibition at 100 ppm stood at 12 mm.
With `OC(Cn1cncn1)(Cn1cncn1)c1ccc(F)cc1F` [FLUCONAZOLE], the “inhibition zone (IZ)” value in the assay on Nannizzia gypsea [44], with Aspergillus flavus [45], in the assay with Rhizopus [46] and in the assay on Mucor [47] was 20 mm each time.

For the origin of these results see ChEMBL document CHEMBL3045391, “Synthesis and biological evaluation of 5,7-diaryl-4,4-dimethyl-4,5,6,7-tetrahydropyridino[3,4-d]-1,2,3-thiadiazoles” (2007).
